The record followed here is patent US10954228B2 (NATIONAL INSTITUTES OF HEALTH, UNITED STATES DEPARTMENT OF …, priority 2016, dated 2021).

One experiment addresses Human LDHA (Homo sapiens (Human), UniProt P00338). Put plainly: human LDHA primary biochemical assay. As to conditions: biochemical LDHA inhibitory activity, assay of Example 1; activity level classes defined in nM. The essentials: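 Human LDHA at 2 nM with 0.06 mM NADH and 0.2 mM sodium pyruvate in 200 mM Tris HCl pH 7.4, 100 μM EDTA, 0.01% TWEEN-20 (final). NADH consumption coupled to resazurin/diaphorase (0.037 mM; 0.133 mg/mL); inhibition read by fluorescence.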

The test system of another experiment is MiaPaCa2 cells. The experiment in a line: cell-based HT lactate assay by colorimetric/fluorometric detection (cellular inhibition of lactate production). The note with it: Homo sapiens, MIA PaCa-2, assay of Example 6. The method, then: This example describes a cell-based metabolite assay by colorimetric/fluorometric detection employed in the characterization of a compound of formula (I) in an embodiment of the invention.
Cell-based HT Lactate assay is a miniaturized Biovision Lactate Colorimetric/Fluorometric Assay Kit (Cat #K607-100). The assay is roughly a 3.5 hour assay run in a 1536 plate format. Cell number optimization should be run for each cell line to achieve an optimal number in which lactate production equals roughly 90% of the standard curve range. Cell number per well optimization has been performed with the following cell lines: MiaPaCa2—500 cells/well, SNU398—500 cells/well, and P493—500 cells/well.

pIC50: −log10 of the molar value. A value given as a limit tells only on which side of the number the result lay.

A word on the IC50: it is the concentration that gives 50% inhibition. High values mean weaker potency, low ones greater potency. As usually defined, the pIC50 is the negative decadic logarithm of the IC50, by convention in mol/L. Higher therefore signals a small IC50.

`CC1CC=C(c2cc(-c3nn(-c4nc(C(=O)O)cs4)c(CC4CC4)c3Cc3ccc(S(N)(=O)=O)c(F)c3)ccc2F)CC1` (stereo not shown) [Compound 101, 2-(5-(cyclopropylmethyl)-3-(6-fluoro-4′-methyl-2′,3′,4′,5′-tetrahydro-[1,1′-biphenyl]-3-yl)-4-(3-fluoro-4-sulfamoylbenzyl)-1H-pyrazol-1-yl)thiazole-4-carboxylic acid] gave an IC50 on Human LDHA of less than 100 nM. In the experiment on MiaPaCa2 cells, this molecule had a pIC50 of more than 6.00.
On Human LDHA, `NS(=O)(=O)c1ccc(Cc2c(-c3ccc(F)c(C4=CCC(C(F)(F)F)CC4)c3)nn(-c3nc(C(=O)O)cs3)c2CC2CC2)cc1F` (stereo not shown) [Compound 102, 2-(5-(cyclopropylmethyl)-3-(6-fluoro-4′-(trifluoromethyl)-2′,3′,4′,5′-tetrahydro-[1,1′-biphenyl]-3-yl)-4-(3-fluoro-4-sulfamoylbenzyl)-1H-pyrazol-1-yl)thiazole-4-carboxylic acid] showed an IC50 of less than 100 nM. The molecule further showed a pIC50 in the experiment on MiaPaCa2 cells of more than 6.00.
For the molecule `CC1CCCC=C1c1cc(-c2nn(-c3nc(C(=O)O)cs3)c(CC3CC3)c2Cc2ccc(S(N)(=O)=O)c(F)c2)ccc1F` (stereo not shown) [Compound 103, 2-(5-(cyclopropylmethyl)-3-(6-fluoro-2′-methyl-2′,3′,4′,5′-tetrahydro-[1,1′-biphenyl]-3-yl)-4-(3-fluoro-4-sulfamoylbenzyl)-1H-pyrazol-1-yl)thiazole-4-carboxylic acid], the IC50 on Human LDHA was less than 100 nM. The molecule further had a pIC50 in the experiment on MiaPaCa2 cells of more than 6.00.
For the molecule `COC1CC=C(c2cc(-c3nn(-c4nc(C(=O)O)cs4)c(CC4CC4)c3Cc3ccc(S(N)(=O)=O)c(F)c3)ccc2F)CC1` (stereo not shown) [Compound 104, 2-(5-(cyclopropylmethyl)-3-(6-fluoro-4′-methoxy-2′,3′,4′,5′-tetrahydro-[1,1′-biphenyl]-3-yl)-4-(3-fluoro-4-sulfamoylbenzyl)-1H-pyrazol-1-yl) thiazole-4-carboxylic acid], the IC50 against Human LDHA was less than 100 nM. In the experiment with MiaPaCa2 cells, this molecule had a pIC50 of more than 6.00.
For `NS(=O)(=O)c1ccc(Cc2c(-c3ccc(F)c(C4=Cc5ccccc5C4)c3)nn(-c3nc(C(=O)O)cs3)c2CC2CC2)cc1F` [Compound 105, 2-(5-(cyclopropylmethyl)-3-(4-fluoro-3-(1H-inden-2-yl)phenyl)-4-(3-fluoro-4-sulfamoylbenzyl)-1H-pyrazol-1-yl)thiazole-4-carboxylic acid], in that order: less than 100 nM and more than 6.00.
For `CC1(C)CC=C(c2cc(-c3nn(-c4nc(C(=O)O)cs4)c(CC4CC4)c3Cc3ccc(S(N)(=O)=O)c(F)c3)ccc2F)CC1` [Compound 106, 2-(5-(cyclopropylmethyl)-3-(6-fluoro-4′,4′-dimethyl-2′,3′,4′,5′-tetrahydro-[1,1′-biphenyl]-3-yl)-4-(3-fluoro-4-sulfamoylbenzyl)-1H-pyrazol-1-yl) thiazole-4-carboxylic acid], in that order: less than 100 nM and more than 6.00.
For `NS(=O)(=O)c1ccc(Cc2c(-c3ccc(F)c(C4=CCC(F)(F)CC4)c3)nn(-c3nc(C(=O)O)cs3)c2CC2CC2)cc1F` [Compound 107, 2-(5-(cyclopropylmethyl)-4-(3-fluoro-4-sulfamoylbenzyl)-3-(4′,4′,6-trifluoro-2′,3′,4′,5′-tetrahydro-[1,1′-biphenyl]-3-yl)-1H-pyrazol-1-yl)thiazole-4-carboxylic acid], in that order: less than 100 nM and more than 6.00.
In turn, `NS(=O)(=O)c1ccc(Cc2c(-c3ccc(F)c(C4=CCC5(CC4)CC5)c3)nn(-c3nc(C(=O)O)cs3)c2CC2CC2)cc1F` [Compound 108, 2-(5-(cyclopropylmethyl)-3-(4-fluoro-3-(spiro[2.5]oct-5-en-6-yl)phenyl)-4-(3-fluoro-4-sulfamoylbenzyl)-1H-pyrazol-1-yl)thiazole-4-carboxylic acid] registered an IC50 against Human LDHA of less than 100 nM. The molecule also showed a pIC50 in the experiment on MiaPaCa2 cells of more than 6.00.
Turning to `CCC#Cc1cc(-c2nn(-c3nc(C(=O)O)cs3)c(CC3CC3)c2Cc2ccc([S+](N)(=O)[O-])c(F)c2)ccc1F` [Compound 109, 2-(3-(3-(but-1-yn-1-yl)-4-fluorophenyl)-5-(cyclopropylmethyl)-4-(3-fluoro-4-sulfamoylbenzyl)-1H-pyrazol-1-yl)thiazole-4-carboxylic acid], the pIC50 with MiaPaCa2 cells is more than 6.00.
`CC(C)(C)c1ccc(C#Cc2cc(-c3nn(-c4nc(C(=O)O)cs4)c(CC4CC4)c3Cc3ccc(S(N)(=O)=O)c(F)c3)ccc2F)s1` [Compound 110, 2-(3-(3-((5-(tert-butyl)thiophen-2-yl)ethynyl)-4-fluorophenyl)-5-(cyclopropylmethyl)-4-(3-fluoro-4-sulfamoylbenzyl)-1H-pyrazol-1-yl)thiazole-4-carboxylic acid]: the IC50 on Human LDHA was in the range of 100 to 1000 nM. Moreover, the pIC50 in the experiment on MiaPaCa2 cells is more than 6.00.
On the same counts, the results for `Cc1ncc(C#Cc2cc(-c3nn(-c4nc(C(=O)O)cs4)c(CC4CC4)c3Cc3ccc(S(N)(=O)=O)c(F)c3)ccc2F)s1` [Compound 111, 2-(5-(cyclopropylmethyl)-3-(4-fluoro-3-((2-methylthiazol-5-yl)ethynyl)phenyl)-4-(3-fluoro-4-sulfamoylbenzyl)-1H-pyrazol-1-yl)thiazole-4-carboxylic acid] are less than 100 nM and more than 6.00.
Consider `CC(C)c1ccc(-c2cc(-c3nn(-c4nc(C(=O)O)cs4)c(CC4CC4)c3Cc3ccc(S(N)(=O)=O)c(F)c3)ccc2F)cc1` [Compound 142, 2-(5-(cyclopropylmethyl)-3-(6-fluoro-4′-isopropyl-[1,1′-biphenyl]-3-yl)-4-(3-fluoro-4-sulfamoylbenzyl)-1H-pyrazol-1-yl)thiazole-4-carboxylic acid], for which the pIC50 in the experiment with MiaPaCa2 cells is more than 6.00.
For `Cc1cc(C#Cc2cccc(-c3nn(-c4nc(C(=O)O)cs4)c(CC4CC4)c3Cc3ccc(S(N)(=O)=O)c(F)c3)c2)c(C)s1` [Compound 241, 2-(5-(cyclopropylmethyl)-3-(3-((2,5-dimethylthiophen-3-yl)ethynyl)phenyl)-4-(3-fluoro-4-sulfamoylbenzyl)-1H-pyrazol-1-yl)thiazole-4-carboxylic acid], the IC50 at Human LDHA is 100 to 1000 nM.
As for `Cc1ccc(C(=O)Cc2cccc(-c3nn(-c4nc(C(=O)O)cs4)c(CC4CC4)c3Cc3ccc(S(N)(=O)=O)c(F)c3)c2)s1` [Compound 242, 2-(5-(cyclopropylmethyl)-4-(3-fluoro-4-sulfamoylbenzyl)-3-(3-(2-(5-methylthiophen-2-yl)-2-oxoethyl)phenyl)-1H-pyrazol-1-yl)thiazole-4-carboxylic acid], the IC50 at Human LDHA was less than 100 nM.
With `Cc1nc(C#Cc2cccc(-c3nn(-c4nc(C(=O)O)cs4)c(CCC4CC4)c3Cc3ccc(S(N)(=O)=O)c(F)c3)c2)cs1` [Compound 243, 2-(5-(2-cyclopropylethyl)-4-(3-fluoro-4-sulfamoylbenzyl)-3-(3-((2-methylthiazol-4-yl)ethynyl)phenyl)-1H-pyrazol-1-yl)thiazole-4-carboxylic acid], the IC50 at Human LDHA was less than 100 nM.
In turn, `NS(=O)(=O)c1ccc(Cc2c(-c3cccc(C#Cc4ccc(C5CC5)s4)c3)nn(-c3nc(C(=O)O)cs3)c2CCC2CC2)cc1F` [Compound 244, 2-(5-(2-cyclopropylethyl)-3-(3-((5-cyclopropylthiophen-2-yl)ethynyl)phenyl)-4-(3-fluoro-4-sulfamoylbenzyl)-1H-pyrazol-1-yl)thiazole-4-carboxylic acid] returned an IC50 on Human LDHA of 100 to 1000 nM.
On Human LDHA, `NS(=O)(=O)c1ccc(Cc2c(-c3cccc(C#Cc4ccc(C5CCC5)s4)c3)nn(-c3nc(C(=O)O)cs3)c2CC2CC2)cc1F` [Compound 245, 2-(3-(3-((5-cyclobutylthiophen-2-yl)ethynyl)phenyl)-5-(cyclopropylmethyl)-4-(3-fluoro-4-sulfamoylbenzyl)-1H-pyrazol-1-yl)thiazole-4-carboxylic acid] gave an IC50 of 100 to 1000 nM.
The same measure, in the same setting: as for `NS(=O)(=O)c1ccc(Cc2c(-c3cccc(C#Cc4ccc(C5CCC5)s4)c3)nn(-c3nc(C(=O)O)cs3)c2CCC2CC2)cc1F` [Compound 246, 2-(3-(3-((5-cyclobutylthiophen-2-yl)ethynyl)phenyl)-5-(2-cyclopropylethyl)-4-(3-fluoro-4-sulfamoylbenzyl)-1H-pyrazol-1-yl)thiazole-4-carboxylic acid], the figure is 100 to 1000 nM.
On the same count and under the same terms, the value for `Cc1ccc(C#Cc2cccc(-c3nn(-c4nc(C(=O)O)co4)c(CC4CC4)c3Cc3ccc(S(N)(=O)=O)c(F)c3)c2)s1` [Compound 247, 2-(5-(cyclopropylmethyl)-4-(3-fluoro-4-sulfamoylbenzyl)-3-(3-((5-methylthiophen-2-yl)ethynyl)phenyl)-1H-pyrazol-1-yl)oxazole-4-carboxylic acid] was less than 100 nM; that for `Cc1ccc(C#Cc2cccc(-c3nn(-c4nc(C(=O)O)cs4)c(CCCC4CC4)c3Cc3ccc(S(N)(=O)=O)c(F)c3)c2)s1` [Compound 248, 2-(5-(3-cyclopropylpropyl)-4-(3-fluoro-4-sulfamoylbenzyl)-3-(3-((5-methylthiophen-2-yl)ethynyl)phenyl)-1H-pyrazol-1-yl)thiazole-4-carboxylic acid] was 100 to 1000 nM; that for `Cc1ccc(C#Cc2cc(-c3nn(-c4nc(C(=O)O)cs4)c(CC4CC4)c3Cc3ccc(S(N)(=O)=O)c(F)c3)ccc2F)s1` [Compound 249, 2-(5-(cyclopropylmethyl)-3-(4-fluoro-3-((5-methylthiophen-2-yl)ethynyl)phenyl)-4-(3-fluoro-4-sulfamoylbenzyl)-1H-pyrazol-1-yl)thiazole-4-carboxylic acid] was less than 100 nM.
